Assay results from patent publication US20240092744A1, “TRICYCLIC COMPOUND, AND PREPARATION METHOD THEREFOR AND MEDICAL USE THEREOF” (THE NATIONAL INSTITUTES OF PHARMACEUTICAL R&D CO., LTD., priority 2020, published 2024).

Assay: Determination of aldehyde capture rate (nonenal as model aldehyde, HPLC quantification)
Settings: for Aldehyde consumption (100%): 0.05 mM compound, 0.025 mM nonenal, room temperature; for Capture rate (slope of the capture curve per unit time): higher absolute value of the slope = higher capture rate
Method: In the aldehyde capture test disclosed in the present invention, the stable lipid metabolite, nonenal, was used as the model aldehyde to react with the compound of the Example. The specific protocol was as follows.
0.05 mM of the compounds of the Examples of the present invention were precisely weighed respectively and dissolved in 1.2 mL of a mixed solution (v/v=1:1) of triolein (Aladdin, G105172-5g) and linoleic acid (Aladdin, L100442-25g), respectively. 2.5 mL of PBS (Solarbio, P1020) solution containing 20% Captisol® (Aladdin, Cl25030-25 g) was added, and the solution was stirred at room temperature overnight. After the example compound was completely dissolved, 0.025 mM nonenal (Sigma, 255653-5G) was added, and the solution was stirred vigorously at room temperature. […] The solution was mixed vigorously by vortex for 2 minutes, and centrifuged at a low speed of 1000 r/min for 3 minutes. The supernatant was transferred to an injection vial. The nonenal in the reaction mixture was analyzed quantitatively by high performance liquid chromatography. The adduct resulted from the example compound of the present invention and nonenal was analyzed qualitatively by high performance liquid chromatography-mass spectrometry.
Liquid Chromatograph: Waters I Class;
Column: ACQUITY UPLC HSS T3 1.8 μm;
Column temperature: 40° C.;
Liquid chromatography condition: mobile phase A: acetonitrile containing 0.1% formic acid; B: water containing 0.1% formic acid;
Injection volume: 0.5 mL.
Gradient of the mobile phases: […]
In the developed detection method, the retention time of the model aldehyde nonenal was 2.42 minutes. • Mass spectrometry conditions: • Mass spectrometer: Waters TQ-S micro • Ion source: ESI^+ • Capillary voltage: 0.5 kV • Cone voltage: 10V • Source temperature: 150° C. • Degassing temperature: 500° C., degassing flow: 1000 L/Hr • SIM mode • m/z: 225.24 [(mExample 1−OH)+H]^+, 365.42 [madduct 1+H]^+
The time-varying diagram of the capture reaction of the compounds of the examples of the present invention to nonenal is shown in FIG. 1.

Row | Compound | Aldehyde consumption (100%) (135 minutes) | Capture rate (slope of the capture curve per unit time) (135 minutes) | Aldehyde consumption (100%) (180 minutes) | Capture rate (slope of the capture curve per unit time) (180 minutes)
1 | CC(C)(O)c1nc2oc3ccccc3c2cc1N [Example 1, 2-(3-Aminobenzofuro[2,3-b]pyridin-2-yl)propan-2-ol] | 24.57% | −0.13 | 34.69% | −0.14
2 | Cn1c2ccccc2c2cc(N)c(C(C)(C)O)cc21 [Example 3, 2-(3-Amino-9-methyl-9H-carbazol-2-yl)propan-2-ol] | 0.11% | −0.01 | 1.38% | −0.02
3 | CN1c2ccccc2Oc2cc(C(C)(C)O)c(N)cc21 [Example 5, 2-(2-Amino-10-methyl-10H-phenoxazin-3-yl)propan-2-ol] | 15.06% | −0.14 | 19.05% | −0.10
4 | CN1c2ccccc2Oc2cc(N)c(C(C)(C)O)cc21 [Example 6, 2-(3-Amino-10-methyl-10H-phenoxazin-2-yl)propan-2-ol] | 5.40% | −0.08 | 11.94% | −0.07
5 | CC(C)(O)c1cc2oc3ccccc3c2cc1N [Example 8, 2-(2-Aminodibenzo[b,d]furan-3-yl)propan-2-ol] | 8.30% | −0.22 | 17.80% | −0.07
6 | CC(C)(O)c1nc2c(cc1N)Oc1ccccc1O2 [Example 9, 2-(3-Aminobenzo[5,6][1,4]dioxino[2,3-b]pyridin-2-yl)propan-2-ol] | 0.10% | −0.01 | 0.10% | −0.04
7 | CC(C)(O)c1nc2c(cc1N)oc1ccccc12 [Example 10, 2-(3-Aminobenzofuro[3,2-b]pyridin-2-yl)propan-2-ol] | 9.15% | −0.08 | 9.48% | −0.06
8 | Cn1c2ccccc2c2nc(C(C)(C)O)c(N)cc21 [Example 11, 2-(3-Amino-5-methyl-5H-pyrido[3,2-b]indol-2-yl)propan-2-ol] | 7.71% | −0.06 | 12.33% | −0.08
9 | Cn1c2cc(Cl)ccc2c2cc(N)c(C(C)(C)O)nc21 [Example 12, 2-(3-Amino-7-chloro-9-methyl-9H-pyrido[2,3-b]indol-2-yl)propan-2-ol] | 17.18% | −0.24 | 30.31% | −0.16
10 | Cn1c2ccc(Cl)cc2c2cc(N)c(C(C)(C)O)nc21 [Example 13, 2-(3-Amino-6-chloro-9-methyl-9H-pyrido[2,3-b]indol-2-yl)propan-2-ol] | 6.03% | −0.12 | 14.83% | −0.08
11 | CC(C)(O)c1cc2c(cc1N)C(C)(C)c1ccccc1-2 [Example 14, 2-(2-Amino-9,9-dimethyl-9H-fluoren-3-yl)propan-2-ol] | 36.30% | −0.19 | 44.51% | −0.28
12 | CC(C)(O)c1cc2c(cc1N)Oc1ncccc1O2 [Example 15, 2-(8-Aminobenzo[5,6][1,4]dioxino[2,3-b]pyridin-7-yl)propan-2-ol] | 23.50% | −0.15 | 30.00% | −0.17
13 | CC(C)(O)c1cc2c(cc1N)Oc1cccnc1O2 [Example 19, 2-(7-Aminobenzo[5,6][1,4]dioxino[2,3-b]pyridin-8-yl)propan-2-ol] | 19.40% | −0.14 | 36.90% | −0.25
14 | CC(C)(O)c1cc2c(cc1N)Oc1cc(F)ccc1O2 [Example 20] | 23.91% | −0.18 | 25.45% | −0.14
15 | CC(C)(O)c1cc2c(cc1N)Oc1ccc(F)cc1O2 [Example 21] | 6.92% | −0.05 | 10.06% | −0.05
16 | CC(C)(O)c1cc2c(cc1N)Oc1nccnc1O2 [Example 23, 2-(8-Aminobenzo[5,6][1,4]dioxino[2,3-b]pyrazin-7-yl)propan-2-ol] | 16.24% | −0.12 | 17.89% | −0.11
17 | CC(C)(O)c1cc2c(cc1N)Oc1cc(Cl)ccc1O2 [Example 25] | 4.87% | −0.03 | 4.88% | −0.03
18 | CC(C)(O)c1cc2c(cc1N)Oc1ccc(Cl)cc1O2 [Example 26] | 2.02% | −0.02 | 5.34% | −0.03
19 | CC(C)(O)c1cc2c(cc1N)N(Cc1ccccc1)c1ccccc1O2 [Example 27, 2-(2-Amino-10-benzyl-10H-phenoxazin-3-yl)propan-2-ol] | 14.37% | −0.11 | 17.87% | −0.10
20 | COC1c2ccccc2-c2cc(C(C)(C)O)c(N)cc21 (stereo not drawn) [Example 28, 2-(2-Amino-9-methoxy-9H-fluoren-3-yl)propan-2-ol] | 3.77% | −0.02 | 4.37% | −0.03
21 | CC(C)(C)OC(=O)N1c2ccccc2Oc2cc(C(C)(C)O)c(N)cc21 [Example 29, tert-Butyl 2-amino-3-(2-hydroxypropan-2-yl)-10H-phenoxazine-10-carboxylate] | 6.52% | −0.04 | 6.53% | −0.04
